# Measured values reported in PubChem BioAssay (NCI).
#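 Interpolation was linear, between the two tested concentrations surrounding the appropriate level; five concentrations were tested over 48 hours in 96-well plates. TGI marks complete inhibition of growth.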
# How the values were obtained:
# Assay in all cases: NCI tumour cell line growth inhibition, 48 h
# SNB-19 CNS = tested on: SNB-19 CNS
# HCT-116 colon = tested on: HCT-116 colon
# DMS 273 small cell lung = tested on: DMS 273 small cell lung
# HCT-15 colon = tested on: HCT-15 colon
# KM12 colon = tested on: KM12 colon
# LXFL 529 NSCLC = tested on: LXFL 529 NSCLC
# RXF 393 renal = tested on: RXF 393 renal
# CCRF-CEM leukemia = tested on: CCRF-CEM leukemia
# M14 melanoma = tested on: M14 melanoma
# UACC-257 melanoma = tested on: UACC-257 melanoma
# NCI-H226 lung = tested on: NCI-H226 lung
# COLO 205 colon = tested on: COLO 205 colon
# HOP-92 NSCLC = tested on: HOP-92 NSCLC
# SF-539 CNS = tested on: SF-539 CNS
# ACHN renal = tested on: ACHN renal
# DMS 114 small cell lung = tested on: DMS 114 small cell lung
# K-562 leukemia = tested on: K-562 leukemia
# SF-295 CNS = tested on: SF-295 CNS
# SK-OV-3 ovarian = tested on: SK-OV-3 ovarian
# KM20L2 colon = tested on: KM20L2 colon
# IGROV1 ovarian = tested on: IGROV1 ovarian
# UO-31 renal = tested on: UO-31 renal
# CAKI-1 renal = tested on: CAKI-1 renal
# SK-MEL-28 melanoma = tested on: SK-MEL-28 melanoma
# XF 498 CNS = tested on: XF 498 CNS
# HOP-62 NSCLC = tested on: HOP-62 NSCLC
# U251 CNS = tested on: U251 CNS
# 786-0 renal = tested on: 786-0 renal
# OVCAR-3 ovarian = tested on: OVCAR-3 ovarian
# OVCAR-8 ovarian = tested on: OVCAR-8 ovarian
# SW-620 colon = tested on: SW-620 colon
# RPMI-8226 leukemia = tested on: RPMI-8226 leukemia
# MOLT-4 leukemia = tested on: MOLT-4 leukemia
# HCC-2998 colon = tested on: HCC-2998 colon
# A549 NSCLC = tested on: A549 NSCLC
# LOX IMVI melanoma = tested on: LOX IMVI melanoma
# TK-10 renal = tested on: TK-10 renal
# SR leukemia = tested on: SR leukemia
# EKVX NSCLC = tested on: EKVX NSCLC
# A498 renal = tested on: A498 renal
# SN12C renal = tested on: SN12C renal
# SK-MEL-2 melanoma = tested on: SK-MEL-2 melanoma
# OVCAR-5 ovarian = tested on: OVCAR-5 ovarian
# SK-MEL-5 melanoma = tested on: SK-MEL-5 melanoma
# HL-60(TB) leukemia = tested on: HL-60(TB) leukemia
# NCI-H23 lung = tested on: NCI-H23 lung
# OVCAR-4 ovarian = tested on: OVCAR-4 ovarian
# NCI-H522 lung = tested on: NCI-H522 lung
# SNB-78 CNS = tested on: SNB-78 CNS
# HT29 colon = tested on: HT29 colon
# NCI-H460 lung = tested on: NCI-H460 lung
# UACC-62 melanoma = tested on: UACC-62 melanoma
# HOP-18 NSCLC = tested on: HOP-18 NSCLC
# M19-MEL melanoma = tested on: M19-MEL melanoma
# DLD-1 colon = tested on: DLD-1 colon
# SF-268 CNS = tested on: SF-268 CNS
# SNB-75 CNS = tested on: SNB-75 CNS
# RXF-631 renal = tested on: RXF-631 renal
# DU-145 prostate = tested on: DU-145 prostate
# MDA-MB-231 breast = tested on: MDA-MB-231 breast
# PC-3 prostate = tested on: PC-3 prostate
# NCI/ADR-RES ovarian = tested on: NCI/ADR-RES ovarian
# T-47D breast = tested on: T-47D breast
# MDA-N = tested on: MDA-N
# MDA-MB-435 = tested on: MDA-MB-435
# MALME-3M melanoma = tested on: MALME-3M melanoma
# HS 578T breast = tested on: HS 578T breast
# MCF7 breast = tested on: MCF7 breast
# BT-549 breast = tested on: BT-549 breast
smiles,measurement,setting,value
CN1CCC(CN2c3ccccc3Sc3ccccc32)CC1,TGI,SNB-19 CNS,29.3 µM
same,TGI,HCT-116 colon,25.2 µM
same,TGI,DMS 273 small cell lung,26.2 µM
same,TGI,HCT-15 colon,32.4 µM
same,TGI,KM12 colon,29.6 µM
same,TGI,LXFL 529 NSCLC,27.5 µM
same,TGI,RXF 393 renal,15.1 µM
same,TGI,CCRF-CEM leukemia,35.9 µM
same,TGI,M14 melanoma,26 µM
same,TGI,UACC-257 melanoma,27.8 µM
same,TGI,NCI-H226 lung,28.8 µM
same,TGI,COLO 205 colon,27.1 µM
same,TGI,HOP-92 NSCLC,17.6 µM
same,TGI,SF-539 CNS,28.5 µM
same,TGI,ACHN renal,29.7 µM
same,TGI,DMS 114 small cell lung,29.8 µM
same,TGI,K-562 leukemia,32.3 µM
same,TGI,SF-295 CNS,29.3 µM
same,TGI,SK-OV-3 ovarian,30.2 µM
same,TGI,KM20L2 colon,25.8 µM
same,TGI,IGROV1 ovarian,30.4 µM
same,TGI,UO-31 renal,21.8 µM
same,TGI,CAKI-1 renal,18 µM
same,TGI,SK-MEL-28 melanoma,23.1 µM
same,TGI,XF 498 CNS,23.9 µM
same,TGI,HOP-62 NSCLC,32.2 µM
same,TGI,U251 CNS,29.2 µM
same,TGI,786-0 renal,27.3 µM
same,TGI,OVCAR-3 ovarian,29 µM
same,TGI,OVCAR-8 ovarian,31.2 µM
same,TGI,SW-620 colon,28.6 µM
same,TGI,RPMI-8226 leukemia,30.7 µM
same,TGI,MOLT-4 leukemia,32.9 µM
same,TGI,HCC-2998 colon,25.6 µM
same,TGI,A549 NSCLC,28.4 µM
same,TGI,LOX IMVI melanoma,26.4 µM
same,TGI,TK-10 renal,29.2 µM
same,TGI,SR leukemia,33.3 µM
same,TGI,EKVX NSCLC,27.5 µM
same,TGI,A498 renal,29 µM
same,TGI,SN12C renal,33.9 µM
same,TGI,SK-MEL-2 melanoma,31 µM
same,TGI,OVCAR-5 ovarian,33.5 µM
same,TGI,SK-MEL-5 melanoma,18.5 µM
same,TGI,HL-60(TB) leukemia,32.8 µM
same,TGI,NCI-H23 lung,30 µM
same,TGI,OVCAR-4 ovarian,30.5 µM
same,TGI,NCI-H522 lung,28.3 µM
same,TGI,SNB-78 CNS,30 µM
same,TGI,HT29 colon,25.3 µM
same,TGI,NCI-H460 lung,28.5 µM
same,TGI,UACC-62 melanoma,28.2 µM
same,TGI,HOP-18 NSCLC,27.5 µM
same,TGI,M19-MEL melanoma,26.4 µM
same,TGI,DLD-1 colon,28.3 µM
same,TGI,SF-268 CNS,29 µM
CN(C)CCNC(=O)c1cccc2c1nc(-c1ccccc1)c1ccccc12,TGI,SNB-19 CNS,23.8 µM
same,TGI,HCT-116 colon,13 µM
same,TGI,SNB-75 CNS,19.9 µM
same,TGI,DMS 273 small cell lung,13.2 µM
same,TGI,HCT-15 colon,13.1 µM
same,TGI,KM12 colon,20.1 µM
same,TGI,RXF 393 renal,9.43 µM
same,TGI,CCRF-CEM leukemia,10.1 µM
same,TGI,M14 melanoma,4.34 µM
same,TGI,RXF-631 renal,3.06 µM
same,TGI,UACC-257 melanoma,3.48 µM
same,TGI,NCI-H226 lung,12.5 µM
same,TGI,COLO 205 colon,15.3 µM
same,TGI,HOP-92 NSCLC,9.24 µM
same,TGI,SF-539 CNS,8.02 µM
same,TGI,ACHN renal,13.4 µM
same,TGI,K-562 leukemia,6.32 µM
same,TGI,SF-295 CNS,18.7 µM
same,TGI,SK-OV-3 ovarian,19.6 µM
same,TGI,IGROV1 ovarian,18.2 µM
same,TGI,UO-31 renal,6.17 µM
same,TGI,CAKI-1 renal,18.4 µM
same,TGI,SK-MEL-28 melanoma,21.3 µM
same,TGI,HOP-62 NSCLC,18.5 µM
same,TGI,U251 CNS,18.4 µM
same,TGI,786-0 renal,16.6 µM
same,TGI,OVCAR-3 ovarian,20.7 µM
same,TGI,OVCAR-8 ovarian,19.6 µM
same,TGI,SW-620 colon,15.5 µM
same,TGI,MOLT-4 leukemia,2.16 µM
same,TGI,HCC-2998 colon,15.9 µM
same,TGI,A549 NSCLC,15 µM
same,TGI,LOX IMVI melanoma,4.03 µM
same,TGI,TK-10 renal,14.4 µM
same,TGI,EKVX NSCLC,25.7 µM
same,TGI,A498 renal,16.9 µM
same,TGI,SN12C renal,15.2 µM
same,TGI,SK-MEL-2 melanoma,23.6 µM
same,TGI,OVCAR-5 ovarian,17.6 µM
same,TGI,SK-MEL-5 melanoma,5.52 µM
same,TGI,HL-60(TB) leukemia,8 µM
same,TGI,NCI-H23 lung,20.1 µM
same,TGI,OVCAR-4 ovarian,17.7 µM
same,TGI,SNB-78 CNS,26.4 µM
same,TGI,HT29 colon,13.1 µM
same,TGI,NCI-H460 lung,13.3 µM
same,TGI,UACC-62 melanoma,24.4 µM
same,TGI,HOP-18 NSCLC,27.9 µM
same,TGI,M19-MEL melanoma,17.3 µM
same,TGI,DLD-1 colon,15.3 µM
same,TGI,SF-268 CNS,18.5 µM
O=C(NP(=O)(N1CC1)N1CC1)c1cc(I)ccc1I,TGI,SNB-19 CNS,> 100 µM
same,TGI,HCT-116 colon,> 100 µM
same,TGI,SNB-75 CNS,79.1 µM
same,TGI,DMS 273 small cell lung,> 100 µM
same,TGI,HCT-15 colon,> 100 µM
same,TGI,KM12 colon,> 100 µM
same,TGI,LXFL 529 NSCLC,> 100 µM
same,TGI,RXF 393 renal,> 87.8 µM
same,TGI,CCRF-CEM leukemia,> 78.8 µM
same,TGI,M14 melanoma,> 100 µM
same,TGI,UACC-257 melanoma,> 100 µM
same,TGI,NCI-H226 lung,> 100 µM
same,TGI,COLO 205 colon,> 100 µM
same,TGI,DU-145 prostate,> 100 µM
same,TGI,HOP-92 NSCLC,> 100 µM
same,TGI,SF-539 CNS,71.7 µM
same,TGI,ACHN renal,> 65.1 µM
same,TGI,DMS 114 small cell lung,99.2 µM
same,TGI,MDA-MB-231 breast,> 100 µM
same,TGI,K-562 leukemia,> 100 µM
same,TGI,PC-3 prostate,> 100 µM
same,TGI,SF-295 CNS,> 100 µM
same,TGI,SK-OV-3 ovarian,89.9 µM
same,TGI,KM20L2 colon,> 100 µM
same,TGI,IGROV1 ovarian,> 100 µM
same,TGI,NCI/ADR-RES ovarian,> 66.1 µM
same,TGI,UO-31 renal,> 100 µM
same,TGI,T-47D breast,> 100 µM
same,TGI,MDA-N,> 100 µM
same,TGI,CAKI-1 renal,> 100 µM
same,TGI,MDA-MB-435,> 100 µM
same,TGI,SK-MEL-28 melanoma,> 100 µM
same,TGI,XF 498 CNS,> 100 µM
same,TGI,HOP-62 NSCLC,> 71.5 µM
same,TGI,U251 CNS,> 100 µM
same,TGI,786-0 renal,> 100 µM
same,TGI,MALME-3M melanoma,> 92 µM
same,TGI,OVCAR-3 ovarian,86.6 µM
same,TGI,OVCAR-8 ovarian,> 94.4 µM
same,TGI,SW-620 colon,> 100 µM
same,TGI,RPMI-8226 leukemia,> 100 µM
same,TGI,HS 578T breast,> 100 µM
same,TGI,MCF7 breast,> 100 µM
same,TGI,MOLT-4 leukemia,> 100 µM
same,TGI,HCC-2998 colon,> 100 µM
same,TGI,A549 NSCLC,> 100 µM
same,TGI,LOX IMVI melanoma,54.8 µM
same,TGI,BT-549 breast,> 100 µM
same,TGI,TK-10 renal,> 100 µM
same,TGI,EKVX NSCLC,> 100 µM
same,TGI,A498 renal,> 100 µM
same,TGI,SN12C renal,> 100 µM
same,TGI,SK-MEL-2 melanoma,> 100 µM
same,TGI,OVCAR-5 ovarian,> 100 µM
same,TGI,SK-MEL-5 melanoma,> 100 µM
same,TGI,HL-60(TB) leukemia,> 96.4 µM
same,TGI,NCI-H23 lung,56.1 µM
same,TGI,OVCAR-4 ovarian,> 100 µM
same,TGI,NCI-H522 lung,> 92.9 µM
same,TGI,SNB-78 CNS,> 100 µM
same,TGI,HT29 colon,> 100 µM
same,TGI,NCI-H460 lung,> 79 µM
same,TGI,UACC-62 melanoma,57.6 µM
same,TGI,HOP-18 NSCLC,> 100 µM
same,TGI,M19-MEL melanoma,> 100 µM
same,TGI,DLD-1 colon,> 100 µM
same,TGI,SF-268 CNS,> 100 µM
